20 compounds from ChEMBL document CHEMBL5291721, “A preclinical secondary pharmacology resource illuminates target-adverse drug reaction associations of marketed drugs” (Nat Commun, 2023) can be followed below.

Experiment [1] concerns the target T1, Muscarinic acetylcholine receptor M2 (Homo sapiens, UniProt P08172).
T1 sequence (P08172 whole entry): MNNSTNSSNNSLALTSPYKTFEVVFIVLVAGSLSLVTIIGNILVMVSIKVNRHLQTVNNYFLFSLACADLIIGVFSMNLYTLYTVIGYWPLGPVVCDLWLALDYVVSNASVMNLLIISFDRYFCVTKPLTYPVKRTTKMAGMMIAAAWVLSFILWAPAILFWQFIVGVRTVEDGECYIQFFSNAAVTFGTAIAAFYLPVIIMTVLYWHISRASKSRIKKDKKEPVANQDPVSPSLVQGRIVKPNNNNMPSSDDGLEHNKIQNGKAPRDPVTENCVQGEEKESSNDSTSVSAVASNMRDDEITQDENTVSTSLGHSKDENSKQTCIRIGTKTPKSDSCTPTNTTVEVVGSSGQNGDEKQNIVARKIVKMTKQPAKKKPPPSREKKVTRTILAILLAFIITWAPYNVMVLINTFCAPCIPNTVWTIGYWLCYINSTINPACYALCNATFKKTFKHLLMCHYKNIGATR
It is filed as functional, cell-based.

The next experiment addresses Vasopressin V1a receptor (Homo sapiens, UniProt P37288).
In experiment [2] the target is T2, Alpha-1A adrenergic receptor (Homo sapiens, UniProt P35348).
T2 sequence (P35348 whole entry): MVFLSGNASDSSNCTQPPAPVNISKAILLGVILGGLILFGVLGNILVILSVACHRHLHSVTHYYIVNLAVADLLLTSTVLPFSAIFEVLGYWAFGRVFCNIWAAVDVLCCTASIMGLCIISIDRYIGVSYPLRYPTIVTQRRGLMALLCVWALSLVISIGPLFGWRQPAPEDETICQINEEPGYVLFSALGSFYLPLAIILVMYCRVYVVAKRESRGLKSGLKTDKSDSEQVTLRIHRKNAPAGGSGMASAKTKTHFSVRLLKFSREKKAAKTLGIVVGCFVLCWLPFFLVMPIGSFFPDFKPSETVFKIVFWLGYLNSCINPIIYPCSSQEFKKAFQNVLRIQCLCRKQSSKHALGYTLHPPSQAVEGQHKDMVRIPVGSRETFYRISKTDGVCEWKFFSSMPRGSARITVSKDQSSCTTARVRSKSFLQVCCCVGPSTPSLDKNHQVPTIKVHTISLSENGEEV
It is filed as functional, cell-based.

For another experiment, the target named is Cannabinoid receptor 1 (Homo sapiens, UniProt P21554). Format: functional, cell-based.
Sequence of Cannabinoid receptor 1 (P21554 whole entry): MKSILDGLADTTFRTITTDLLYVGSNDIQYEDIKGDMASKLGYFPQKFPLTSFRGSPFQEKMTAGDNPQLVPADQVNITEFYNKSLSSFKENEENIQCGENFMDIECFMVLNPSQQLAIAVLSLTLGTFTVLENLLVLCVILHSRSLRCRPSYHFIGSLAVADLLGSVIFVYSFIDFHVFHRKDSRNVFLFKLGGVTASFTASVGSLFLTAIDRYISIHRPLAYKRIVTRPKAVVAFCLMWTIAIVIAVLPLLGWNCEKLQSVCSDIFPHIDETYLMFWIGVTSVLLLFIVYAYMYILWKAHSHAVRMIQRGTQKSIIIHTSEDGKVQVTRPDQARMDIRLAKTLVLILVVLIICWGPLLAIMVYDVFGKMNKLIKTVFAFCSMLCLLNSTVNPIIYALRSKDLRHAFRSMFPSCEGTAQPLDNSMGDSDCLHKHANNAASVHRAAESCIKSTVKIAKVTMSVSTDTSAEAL
The next experiment concerns the target T3, Endothelin-1 receptor (Homo sapiens, UniProt P25101).
T3 sequence (P25101 whole entry): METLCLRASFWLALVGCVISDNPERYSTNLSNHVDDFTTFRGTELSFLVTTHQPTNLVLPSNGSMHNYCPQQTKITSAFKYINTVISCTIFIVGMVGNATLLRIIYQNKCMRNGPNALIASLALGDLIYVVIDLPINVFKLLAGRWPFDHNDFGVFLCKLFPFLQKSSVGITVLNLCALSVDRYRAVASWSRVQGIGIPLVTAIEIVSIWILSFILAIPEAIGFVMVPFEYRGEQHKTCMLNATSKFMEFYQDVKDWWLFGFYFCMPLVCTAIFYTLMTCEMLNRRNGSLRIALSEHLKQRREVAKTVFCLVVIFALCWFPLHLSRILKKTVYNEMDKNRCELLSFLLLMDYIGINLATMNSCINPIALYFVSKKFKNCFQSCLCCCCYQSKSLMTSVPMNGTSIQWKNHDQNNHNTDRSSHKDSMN

In experiment [3] the target is Gamma-aminobutyric acid receptor subunit alpha-1 (Rattus norvegicus, UniProt P62813).
Sequence of Gamma-aminobutyric acid receptor subunit alpha-1 (P62813 whole entry): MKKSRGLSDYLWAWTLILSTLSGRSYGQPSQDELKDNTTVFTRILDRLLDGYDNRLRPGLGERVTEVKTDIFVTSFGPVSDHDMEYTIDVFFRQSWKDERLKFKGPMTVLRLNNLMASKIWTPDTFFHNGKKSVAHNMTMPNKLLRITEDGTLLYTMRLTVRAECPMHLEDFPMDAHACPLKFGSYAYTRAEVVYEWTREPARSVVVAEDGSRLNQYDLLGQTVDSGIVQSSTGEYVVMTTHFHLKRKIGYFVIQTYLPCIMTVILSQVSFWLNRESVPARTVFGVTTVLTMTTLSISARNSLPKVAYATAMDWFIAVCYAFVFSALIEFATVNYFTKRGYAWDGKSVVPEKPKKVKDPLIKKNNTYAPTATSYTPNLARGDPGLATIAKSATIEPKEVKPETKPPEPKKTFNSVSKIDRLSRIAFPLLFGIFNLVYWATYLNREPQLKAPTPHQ
For another experiment, the target named is T4, Glucocorticoid receptor (Homo sapiens, UniProt P04150).
T4 sequence (P04150 whole entry): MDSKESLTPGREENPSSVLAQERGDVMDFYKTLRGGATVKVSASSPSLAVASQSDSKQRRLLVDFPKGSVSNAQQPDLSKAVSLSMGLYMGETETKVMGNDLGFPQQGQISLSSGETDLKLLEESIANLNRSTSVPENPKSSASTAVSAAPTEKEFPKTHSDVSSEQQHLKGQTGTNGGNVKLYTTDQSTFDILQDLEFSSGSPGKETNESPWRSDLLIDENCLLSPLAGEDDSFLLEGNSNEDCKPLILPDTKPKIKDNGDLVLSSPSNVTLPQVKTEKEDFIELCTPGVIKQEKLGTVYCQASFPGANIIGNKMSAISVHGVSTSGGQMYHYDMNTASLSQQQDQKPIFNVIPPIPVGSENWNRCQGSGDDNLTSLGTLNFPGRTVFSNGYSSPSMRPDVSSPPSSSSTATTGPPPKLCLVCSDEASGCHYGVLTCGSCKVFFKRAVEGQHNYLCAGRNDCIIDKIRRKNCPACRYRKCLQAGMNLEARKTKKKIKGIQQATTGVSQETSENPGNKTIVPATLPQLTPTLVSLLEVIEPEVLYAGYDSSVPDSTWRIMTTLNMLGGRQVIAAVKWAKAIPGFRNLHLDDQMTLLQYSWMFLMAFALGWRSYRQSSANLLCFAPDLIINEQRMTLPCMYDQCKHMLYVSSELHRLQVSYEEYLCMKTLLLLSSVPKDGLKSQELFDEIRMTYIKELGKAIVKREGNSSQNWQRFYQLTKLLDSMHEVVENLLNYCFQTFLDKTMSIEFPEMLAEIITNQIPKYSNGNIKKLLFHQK

Experiment [4] deals with cGMP-inhibited 3',5'-cyclic phosphodiesterase 3A (Homo sapiens, UniProt Q14432). It is filed as functional.
Sequence of cGMP-inhibited 3',5'-cyclic phosphodiesterase 3A (Q14432 whole entry): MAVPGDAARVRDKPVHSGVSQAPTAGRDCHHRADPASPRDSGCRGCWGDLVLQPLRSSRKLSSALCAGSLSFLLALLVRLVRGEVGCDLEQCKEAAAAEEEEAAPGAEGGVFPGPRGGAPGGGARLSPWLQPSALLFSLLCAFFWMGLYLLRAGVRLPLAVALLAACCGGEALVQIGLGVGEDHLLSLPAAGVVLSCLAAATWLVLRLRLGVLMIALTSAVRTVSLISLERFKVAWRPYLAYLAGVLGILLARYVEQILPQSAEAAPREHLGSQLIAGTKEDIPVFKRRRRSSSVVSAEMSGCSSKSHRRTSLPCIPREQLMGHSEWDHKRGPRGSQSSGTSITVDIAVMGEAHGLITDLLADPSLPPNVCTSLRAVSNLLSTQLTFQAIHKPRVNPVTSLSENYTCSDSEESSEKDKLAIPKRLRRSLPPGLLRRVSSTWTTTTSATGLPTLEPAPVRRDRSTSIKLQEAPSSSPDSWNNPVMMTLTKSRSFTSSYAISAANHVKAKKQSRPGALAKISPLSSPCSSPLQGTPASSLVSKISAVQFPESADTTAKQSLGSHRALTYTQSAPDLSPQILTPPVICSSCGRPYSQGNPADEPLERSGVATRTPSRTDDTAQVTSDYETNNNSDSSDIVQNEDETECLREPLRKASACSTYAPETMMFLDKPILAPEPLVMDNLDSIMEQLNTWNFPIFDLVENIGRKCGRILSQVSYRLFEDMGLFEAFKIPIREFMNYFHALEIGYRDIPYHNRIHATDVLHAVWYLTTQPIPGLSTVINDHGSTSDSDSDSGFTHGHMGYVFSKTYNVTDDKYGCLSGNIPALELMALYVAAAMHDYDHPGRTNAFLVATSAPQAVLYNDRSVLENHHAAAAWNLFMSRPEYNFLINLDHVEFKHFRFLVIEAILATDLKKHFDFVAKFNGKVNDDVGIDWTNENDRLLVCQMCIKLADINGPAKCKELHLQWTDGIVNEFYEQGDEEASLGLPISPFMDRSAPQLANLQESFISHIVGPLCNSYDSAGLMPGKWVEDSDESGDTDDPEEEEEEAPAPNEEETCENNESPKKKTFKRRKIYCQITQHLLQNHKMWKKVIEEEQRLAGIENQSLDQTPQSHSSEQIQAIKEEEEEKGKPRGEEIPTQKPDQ
Experiment [5] deals with T2, Alpha-1A adrenergic receptor. It is filed as functional, cell-based. The source holds these as a separate data set.
Also: assay procedure not described here.

Sequence of Vasopressin V1a receptor (P37288 whole entry): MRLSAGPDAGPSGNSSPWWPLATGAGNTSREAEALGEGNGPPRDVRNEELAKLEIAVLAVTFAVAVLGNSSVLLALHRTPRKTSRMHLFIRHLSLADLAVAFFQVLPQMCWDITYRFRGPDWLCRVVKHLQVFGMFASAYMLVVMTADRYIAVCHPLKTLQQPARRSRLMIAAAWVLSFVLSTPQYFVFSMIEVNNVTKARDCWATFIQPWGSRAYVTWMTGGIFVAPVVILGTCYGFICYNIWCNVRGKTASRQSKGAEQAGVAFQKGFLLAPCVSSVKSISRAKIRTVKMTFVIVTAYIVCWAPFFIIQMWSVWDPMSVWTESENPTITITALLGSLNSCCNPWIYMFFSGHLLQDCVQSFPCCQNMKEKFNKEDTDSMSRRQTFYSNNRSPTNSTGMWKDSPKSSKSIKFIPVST

Regarding `CN(C)CCc1c[nH]c2ccc(CS(=O)(=O)N3CCCC3)cc12` [ALMOTRIPTAN], the AC50 (in experiment [1]; on Vasopressin V1a receptor; in experiment [2]; at Cannabinoid receptor 1; at Endothelin-1 receptor; in experiment [3]) was above 30 µM throughout.
As to `NCCCNCCSP(=O)(O)O` [AMIFOSTINE], the AC50 (in experiment [1]; in experiment [2]; at Cannabinoid receptor 1; at Endothelin-1 receptor; at Glucocorticoid receptor; in experiment [3]) was above 30 µM throughout.
Take `CN(C)CCOC(c1ccc(Cl)cc1)c1ccccn1` (stereo unspecified) [CARBINOXAMINE]: the AC50 was 26 µM in experiment [1]; above 30 µM at Vasopressin V1a receptor; above 30 µM in experiment [2]; above 30 µM on Cannabinoid receptor 1; above 30 µM on Endothelin-1 receptor; above 30 µM on Glucocorticoid receptor.
On to `CCN(CC)CCn1c(=O)c(Cc2ccc(OC)cc2)nc2ccccc21` [CAROVERINE], for which the AC50 (in [1]; at Vasopressin V1a receptor; in experiment [2]; on Cannabinoid receptor 1; at Endothelin-1 receptor; on Glucocorticoid receptor) was above 30 µM each time. For the same compound, the AC50 in experiment [3] is above 30 µM.
Regarding `C[C@H](Nc1ncnc2[nH]cnc12)c1cc2cccc(Cl)c2c(=O)n1-c1ccccc1` [DUVELISIB], the AC50 in [1] is above 30 µM; on Vasopressin V1a receptor it was above 30 µM; in experiment [2], above 30 µM; on Cannabinoid receptor 1, above 30 µM; at Endothelin-1 receptor, above 30 µM; in [4], 16.8 µM.
With `COC(=O)CCc1ccc(OCC(O)CNC(C)C)cc1` (stereo unspecified) [ESMOLOL], the AC50 (in experiment [1]; in [2]; at Endothelin-1 receptor; at Glucocorticoid receptor; in experiment [3]) was above 30 µM throughout.
For the compound `C[C@]12CCC(=O)C=C1CC[C@H]1[C@@H]3CC[C@](O)(C(=O)CO)[C@@]3(C)C[C@H](O)[C@@]12F` [FLUDROCORTISONE], the AC50 in [1] was above 30 µM; at Vasopressin V1a receptor it was above 30 µM; in [2] it was above 30 µM; at Cannabinoid receptor 1, above 30 µM; on Endothelin-1 receptor it was above 30 µM; in experiment [3], above 10 µM.
For the compound `CCOC(=O)Nc1ccc(NCc2ccc(F)cc2)nc1N` [FLUPIRTINE], the concentration at half-maximal activity (AC50) (in [1]; at Vasopressin V1a receptor; at Cannabinoid receptor 1; on Endothelin-1 receptor; on Glucocorticoid receptor; in experiment [3]) was above 30 µM in each case.
With `OCCOCCN1CCN(C(c2ccccc2)c2ccc(Cl)cc2)CC1` (stereo unspecified) [HYDROXYZINE], the AC50 in experiment [1] is above 10 µM; at Vasopressin V1a receptor it was above 10 µM; in experiment [2] it was above 30 µM; at Cannabinoid receptor 1 it was above 30 µM; on Endothelin-1 receptor, above 30 µM; in [3], above 10 µM.
`Nc1nnc(-c2cccc(Cl)c2Cl)c(N)n1` [LAMOTRIGINE]: the AC50 was above 10 µM in experiment [1]; above 10 µM on Vasopressin V1a receptor; above 30 µM in experiment [2]; above 30 µM on Cannabinoid receptor 1; above 30 µM at Endothelin-1 receptor; above 10 µM in experiment [3].
For `N[C@@H](Cc1cc(I)c(Oc2cc(I)c(O)c(I)c2)c(I)c1)C(=O)O` [LEVOTHYROXINE], the AC50 (in experiment [1]; on Vasopressin V1a receptor; in [2]; on Cannabinoid receptor 1; at Endothelin-1 receptor; at Glucocorticoid receptor) was above 30 µM throughout.
`CC(=O)NC[C@H]1CN(c2ccc(N3CCOCC3)c(F)c2)C(=O)O1` [LINEZOLID]: the AC50 (in [2]; at Cannabinoid receptor 1; at Endothelin-1 receptor; on Glucocorticoid receptor; in [3]) was above 30 µM in each case.
Consider `O=C1[C@@H]2[C@H]3CC[C@H](C3)[C@@H]2C(=O)N1C[C@@H]1CCCC[C@H]1CN1CCN(c2nsc3ccccc23)CC1` [LURASIDONE], for which the AC50 (on Vasopressin V1a receptor; on Cannabinoid receptor 1; at Endothelin-1 receptor; in [4]) was above 30 µM each time.
On to `CS(=O)(=O)Nc1ccc([N+](=O)[O-])cc1Oc1ccccc1` [NIMESULIDE], for which the AC50 (in [1]; on Vasopressin V1a receptor; in experiment [2]; on Cannabinoid receptor 1; in [5]; at Endothelin-1 receptor) was above 30 µM in each case. The AC50 in experiment [4] and in experiment [3] was above 30 µM each time.
Take `CC(=O)SCC(Cc1ccccc1)C(=O)NCC(=O)OCc1ccccc1` (stereo unspecified) [RACECADOTRIL]: the AC50 (in experiment [1]; on Vasopressin V1a receptor; at Cannabinoid receptor 1; at Endothelin-1 receptor; at Glucocorticoid receptor; in experiment [3]) was above 30 µM each time.
Take `COc1cc2c(cc1OC)C1CC(=O)C(CC(C)C)CN1CC2` (stereo unspecified) [TETRABENAZINE]: the AC50 (in experiment [1]; on Vasopressin V1a receptor; in [2]; at Cannabinoid receptor 1; at Endothelin-1 receptor) was above 30 µM in each case.
On to `CC(C)(CO)c1cc2cc(NC(=O)C3(c4ccc5c(c4)OC(F)(F)O5)CC3)c(F)cc2n1C[C@@H](O)CO` [TEZACAFTOR], for which the AC50 (in experiment [1]; at Vasopressin V1a receptor; in experiment [2]; at Cannabinoid receptor 1; at Endothelin-1 receptor) was above 30 µM in each case.
For `Cc1c(C)c2c(c(C)c1O)CCC(C)(COc1ccc(CC3SC(=O)NC3=O)cc1)O2` (stereo unspecified) [TROGLITAZONE], the AC50 was above 30 µM at Vasopressin V1a receptor; above 30 µM in experiment [2]; above 30 µM on Cannabinoid receptor 1; 3.96 µM in experiment [5]; above 30 µM on Endothelin-1 receptor; 11 µM in [4]. This compound gave an AC50 in experiment [3] above 30 µM.
In the case of `c1cnc2cc3c(cc2n1)[C@@H]1CNC[C@H]3C1` [VARENICLINE], the AC50 (in experiment [1]; on Vasopressin V1a receptor; in experiment [2]; on Cannabinoid receptor 1; at Endothelin-1 receptor) was above 30 µM each time.
Take `Nc1c2c(nc3ccccc13)CCCC2O` (stereo unspecified) [VELNACRINE]: the AC50 (in [1]; at Vasopressin V1a receptor; in experiment [2]; on Cannabinoid receptor 1; on Endothelin-1 receptor) was above 30 µM each time.
